Counter-ions that a name gives are not always drawn. Bridge positions count the residues as written; N and C are the ends. Peptide text beside a SMILES is read from it.
Columns and labels:
hERG channel = target: T1, hERG channel (Homo sapiens, UniProt Q12809); assay: Ki (average)
T1 construct: host or cells: HEK-293 (hERG/HEK-293 cell line, clone 16), membrane preparation
Source text: Table printed on a drawing sheet, FIG. 4
Title: Ki of BeKm-1 Analogs in Two Independent FlashBlue Competition Assays.
Head of the field: Ki (average)
First copying reader's note: The table is panel A of FIG. 4; panel B is a plot and is left out.

[1] = target: T2, hERG K+ channel membranes (hERG/HEK-293 cell line, clone 16) (Homo sapiens, UniProt Q12809); assay: homogeneous [125I]-BeKm-1 FlashBlue competition assay; type: binding; conditions: [125I]-BeKm-1 at 0.17 nM; acetate and TFA salts; one hour at room temperature
T2 construct: host or cells: HEK-293 (hERG/HEK-293 cell line, clone 16), membrane preparation
Protocol: Acetate and TFA salts of (SeC)^7-BeKm-1 were tested in homogeneous [^125I]-BeKm-1 competition assays using FlashBlue GPCR beads and hERG K^+ channel membranes derived from Perkin Elmer's hERG/HEK-293 cell line (clone 16). […] Assays were run in buffer composed of 20 mM Hepes/Tris pH 7.2, 100 μM KCl, 0.5% BSA. 1.25 μg hERG K^+ channel membranes and 62.5 μg FlashBlue GPCR beads were added to each well of a 384-well white Optiplate. The total assay volume for each well was 40 μl. Plates were spun briefly after a one hour incubation at room temperature prior to signal detection with a TopCount apparatus.

T1 sequence (Q12809 whole entry, looked up): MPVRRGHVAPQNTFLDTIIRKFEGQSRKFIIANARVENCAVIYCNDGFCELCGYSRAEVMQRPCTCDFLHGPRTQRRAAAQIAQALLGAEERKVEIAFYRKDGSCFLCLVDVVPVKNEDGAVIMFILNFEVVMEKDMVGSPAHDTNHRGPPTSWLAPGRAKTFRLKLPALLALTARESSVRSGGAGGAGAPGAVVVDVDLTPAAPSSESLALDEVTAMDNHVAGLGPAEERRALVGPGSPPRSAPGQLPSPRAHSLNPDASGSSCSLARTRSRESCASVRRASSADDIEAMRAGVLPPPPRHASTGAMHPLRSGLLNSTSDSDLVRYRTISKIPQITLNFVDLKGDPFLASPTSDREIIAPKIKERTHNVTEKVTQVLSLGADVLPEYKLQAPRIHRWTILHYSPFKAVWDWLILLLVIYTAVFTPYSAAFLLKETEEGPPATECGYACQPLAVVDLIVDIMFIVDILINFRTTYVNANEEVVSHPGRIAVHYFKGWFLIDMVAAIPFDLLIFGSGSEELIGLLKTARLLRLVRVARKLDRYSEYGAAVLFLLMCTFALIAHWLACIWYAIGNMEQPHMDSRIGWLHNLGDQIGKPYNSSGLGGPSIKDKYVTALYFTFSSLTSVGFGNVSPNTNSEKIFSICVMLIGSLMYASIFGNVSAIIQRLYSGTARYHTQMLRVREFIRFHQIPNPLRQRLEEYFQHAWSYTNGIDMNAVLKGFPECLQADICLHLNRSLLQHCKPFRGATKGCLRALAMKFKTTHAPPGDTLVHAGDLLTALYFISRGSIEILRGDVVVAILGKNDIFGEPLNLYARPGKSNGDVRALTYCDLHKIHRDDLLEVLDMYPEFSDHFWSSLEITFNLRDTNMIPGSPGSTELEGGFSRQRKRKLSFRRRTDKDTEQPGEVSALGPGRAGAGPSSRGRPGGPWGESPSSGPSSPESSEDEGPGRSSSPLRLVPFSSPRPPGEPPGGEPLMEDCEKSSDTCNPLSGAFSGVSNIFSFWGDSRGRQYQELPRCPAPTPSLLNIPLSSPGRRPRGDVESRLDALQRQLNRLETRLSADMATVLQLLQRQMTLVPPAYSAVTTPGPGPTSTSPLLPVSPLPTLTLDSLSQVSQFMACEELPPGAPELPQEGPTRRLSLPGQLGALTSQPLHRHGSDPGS
T2 sequence (Q12809 whole entry): as the sequence (Q12809 whole entry, looked up) above

Row | Compound | Ki (hERG channel) [nM] | affinity for the hERG channel (Ki, FIG. 4) [1]
1 | CC[C@H](C)[C@H](NC(=O)[C@H](CC(=O)O)NC(=O)[C@@H](NC(=O)[C@@H]1CCCN1C(=O)[C@@H](N)CCCNC(=N)N)[C@@H](C)O)C(=O)N[C@@H](CCCCN)C(=O)N[C@H]1CSSC[C@@H]2NC(=O)[C@H](CCCNC(=N)N)NC(=O)CNC(=O)[C@H](CC(N)=O)NC(=O)[C@H]([C@@H](C)O)NC(=O)[C@H](CCCCN)NC(=O)CNC(=O)[C@H](Cc3ccccc3)NC(=O)[C@H](CCCNC(=N)N)NC(=O)[C@H](CO)NC(=O)[C@H](CCCCN)NC(=O)[C@@H]3CSSC[C@@H](C(=O)N[C@@H](Cc4ccccc4)C(=O)O)NC(=O)[C@H](CC(=O)O)NC(=O)[C@H](CSSC[C@H](NC(=O)[C@H](CCC(N)=O)NC(=O)[C@H](Cc4ccc(O)cc4)NC(=O)[C@H](CO)NC(=O)[C@H](CCC(=O)O)NC(=O)[C@H](CO)NC1=O)C(=O)N[C@@H](Cc1ccccc1)C(=O)N1CCC[C@H]1C(=O)N[C@@H](C(C)C)C(=O)N3)NC(=O)[C@H](Cc1ccccc1)NC(=O)CNC(=O)[C@H](CC(N)=O)NC(=O)[C@H](C(C)C)NC2=O [BeKm-1 TFA Salt] (H-RPTDIKCSESYQCFPVCKSRFGKTNGRCVNGFCDCF-OH; disulfide 7-28, 13-33, 17-35 (inferred)) | 0.35 | –
2 | RPTDIKCSESYQCFPVCKSRFGKTNGRCVNGFCDCF [(SeC)^7-BeKm-1] | – | comparable to that of native BeKm-1
